Data from ChEMBL document CHEMBL1143632, “Ligand-based prediction of active conformation by 3D-QSAR flexibility descriptors and their application in 3+3D-QSAR models” (J Med Chem, 2005).
Where a SMILES comes first, the peptide text is derived from it. [ ]: non-standard residue; d: D form. Dmt = Cc1cc(O)cc(C)c1C[C@H](N)C(=O)O

Target: Mu-type opioid receptor (Mus musculus, UniProt P42866)
Assay: Inhibition of DAMGO (Tyr-[D-Ala]-Gly-[NMe-Phe]-Gly-ol) binding to mouse brain mu opioid receptor

Mu-type opioid receptor (Mus musculus, UniProt P42866), sequence (P42866 whole entry): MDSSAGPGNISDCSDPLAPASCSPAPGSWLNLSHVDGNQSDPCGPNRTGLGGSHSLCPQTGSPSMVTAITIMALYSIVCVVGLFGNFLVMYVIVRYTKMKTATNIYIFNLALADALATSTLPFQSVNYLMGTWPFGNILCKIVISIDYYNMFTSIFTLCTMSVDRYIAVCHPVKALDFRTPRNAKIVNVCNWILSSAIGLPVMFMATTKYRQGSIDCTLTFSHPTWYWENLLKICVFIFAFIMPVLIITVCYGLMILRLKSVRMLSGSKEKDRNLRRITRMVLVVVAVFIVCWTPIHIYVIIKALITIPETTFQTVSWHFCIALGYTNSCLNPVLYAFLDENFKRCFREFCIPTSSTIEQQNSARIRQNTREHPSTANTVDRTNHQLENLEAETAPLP

| Structure (SMILES) | Ki [nM] |
| --- | --- |
| NC(=O)[C@H](Cc1ccccc1)NC(=O)[C@@H]1Cc2ccccc2[C@@H]1NC(=O)[C@@H]1CCCN1C(=O)[C@@H](N)Cc1ccc(O)cc1 | 298 |
| NC(=O)[C@H](Cc1ccccc1)NC(=O)[C@H]1Cc2ccccc2[C@H]1NC(=O)[C@@H]1CCCN1C(=O)[C@@H](N)Cc1ccc(O)cc1 | 128 |
| NC(=O)[C@H](Cc1ccccc1)NC(=O)[C@H](Cc1ccccc1)NC(=O)[C@@H]1Cc2ccccc2[C@@H]1NC(=O)[C@@H](N)Cc1ccc(O)cc1 | 1000 |
| NC(=O)[C@H](Cc1ccccc1)NC(=O)[C@H](Cc1ccccc1)NC(=O)[C@H]1Cc2ccccc2[C@H]1NC(=O)[C@@H](N)Cc1ccc(O)cc1 | 241 |

Species on record: Rattus norvegicus
Assay: Antinidatory effect was determined in rat
Format: functional
Design: unit not given here

| Structure (SMILES) | Log ED50 |
| --- | --- |
| COc1cccc(C#C[C@H](O)/C=C/[C@@H]2[C@@H](CCCCCCC(=O)O)[C@@H](O)C[C@H]2O)c1 | 2 |
| CCC(C)(C)CC[C@H](O)/C=C/[C@@H]1[C@@H](C/C=C\CCCC(=O)O)[C@@H](O)C[C@H]1O | 0.664 |
| O=C(O)CCC/C=C\C[C@@H]1[C@@H](/C=C/[C@@H](O)C#Cc2ccccc2)[C@H](O)C[C@@H]1O | 1.699 |
| O=C(O)CCC/C=C\C[C@@H]1[C@@H](/C=C/[C@@H](O)/C=C/c2ccccc2)[C@H](O)C[C@@H]1O | -0.602 |
| CCCCOCC[C@H](O)/C=C/[C@@H]1[C@@H](C/C=C\CCCC(=O)O)[C@@H](O)C[C@H]1O | -0.301 |
| O=C(O)C/C=C/C=C\C[C@@H]1[C@@H](/C=C/[C@@H](O)COc2ccccc2)[C@H](O)C[C@@H]1O | 0 |
| O=C(O)CCC/C=C\C[C@@H]1[C@@H](/C=C/[C@@H](O)C#Cc2cccs2)[C@H](O)C[C@@H]1O | 0.602 |
| CCCCCCOC[C@H](O)/C=C/[C@@H]1[C@@H](C/C=C\CCCC(=O)O)[C@@H](O)C[C@H]1O | 0.699 |
| CCCOC[C@H](O)/C=C/[C@@H]1[C@@H](C/C=C\CCCC(=O)O)[C@@H](O)C[C@H]1O | 0.398 |
| O=C(O)/C=C/C=C/CC[C@@H]1[C@@H](/C=C/[C@@H](O)COc2cccc(Cl)c2)[C@H](O)C[C@@H]1O | 0.777 |
| O=C(O)CCC/C=C\C[C@@H]1[C@@H](/C=C/[C@@H](O)C#Cc2ccco2)[C@H](O)C[C@@H]1O | 0 |
| O=C(O)/C=C/C=C/C=C/[C@@H]1[C@@H](/C=C/[C@@H](O)COc2cccc(Cl)c2)[C@H](O)C[C@@H]1O | 0.699 |
| O=C(O)C/C=C/C=C\C[C@@H]1[C@@H](/C=C/[C@@H](O)COc2cccc(Cl)c2)[C@H](O)C[C@@H]1O | 2.886 |
| O=C(O)CCC/C=C\C[C@@H]1[C@@H](/C=C/[C@@H](O)c2ccc(C(F)(F)F)cc2)[C@H](O)C[C@@H]1O | 1.699 |
| CCCCCOC[C@H](O)/C=C/[C@@H]1[C@@H](C/C=C\CCCC(=O)O)[C@@H](O)C[C@H]1O | 1 |
| O=C(O)/C=C/C/C=C/C[C@@H]1[C@@H](/C=C/[C@@H](O)COc2cccc(Cl)c2)[C@H](O)C[C@@H]1O | 2 |
| CCCC(C)(C)C[C@H](O)/C=C/[C@@H]1[C@@H](C/C=C\CCCC(=O)O)[C@@H](O)C[C@H]1O | 0.279 |
| O=C(O)CC/C=C\CC[C@@H]1[C@@H](/C=C/[C@@H](O)CCc2ccccc2)[C@H](O)C[C@@H]1O | 2.301 |

| Structure (SMILES) | Log ED50 |
| --- | --- |
| CCCCCCC[C@H](O)/C=C/[C@@H]1[C@@H](C/C=C\CCCC(=O)O)[C@@H](O)C[C@H]1O | 0.669 |
| O=C(O)CCC/C=C\C[C@@H]1[C@@H](/C=C/[C@@H](O)C#CC2CCCCC2)[C@H](O)C[C@@H]1O | 1.959 |
| COCCCCC[C@H](O)/C=C/[C@@H]1[C@@H](C/C=C\CCCC(=O)O)[C@@H](O)C[C@H]1O | 0.398 |
| O=C(O)/C=C/CCCC[C@@H]1[C@@H](/C=C/[C@@H](O)COc2cccc(C(F)(F)F)c2)[C@H](O)C[C@@H]1O | 0.602 |
| O=C(O)/C=C\CCCC[C@@H]1[C@@H](/C=C/[C@@H](O)COc2cccc(C(F)(F)F)c2)[C@H](O)C[C@@H]1O | 0.482 |
| O=C(O)/C=C/C=C/C=C/[C@@H]1[C@@H](/C=C/[C@@H](O)COc2ccccc2)[C@H](O)C[C@@H]1O | 0.699 |
| CCOCCCC[C@H](O)/C=C/[C@@H]1[C@@H](C/C=C\CCCC(=O)O)[C@@H](O)C[C@H]1O | 0.699 |
| CCCCOC[C@H](O)/C=C/[C@@H]1[C@@H](C/C=C\CCCC(=O)O)[C@@H](O)C[C@H]1O | 1 |
| O=C(O)/C=C/C/C=C\C[C@@H]1[C@@H](/C=C/[C@@H](O)COc2ccccc2)[C@H](O)C[C@@H]1O | 2.481 |
| O=C(O)/C=C/C/C=C\C[C@@H]1[C@@H](/C=C/[C@@H](O)COc2ccc(Cl)cc2)[C@H](O)C[C@@H]1O | 2 |
| O=C(O)/C=C/C/C=C\C[C@@H]1[C@@H](/C=C/[C@@H](O)COc2cccc(Cl)c2)[C@H](O)C[C@@H]1O | 2.301 |
| O=C(O)CCC/C=C/C[C@@H]1[C@@H](/C=C/[C@@H](O)C2CC2c2ccccc2)[C@H](O)C[C@@H]1O (stereo not given in full) | 1.398 |
| O=C(O)C/C=C/C=C/C[C@@H]1[C@@H](/C=C/[C@@H](O)COc2ccccc2)[C@H](O)C[C@@H]1O | 1.699 |
| O=C(O)/C=C/C/C=C\C[C@@H]1[C@@H](/C=C/[C@@H](O)COc2cccc(C(F)(F)F)c2)[C@H](O)C[C@@H]1O | 2 |
| CCCCC(C)(C)[C@H](O)/C=C/[C@@H]1[C@@H](C/C=C\CCCC(=O)O)[C@@H](O)C[C@H]1O | 0.081 |
| CCCOCCC[C@H](O)/C=C/[C@@H]1[C@@H](C/C=C\CCCC(=O)O)[C@@H](O)C[C@H]1O | -0.602 |
| O=C(O)CCC/C=C\C[C@@H]1[C@@H](/C=C/[C@@H](O)COc2ccc(F)cc2)[C@H](O)C[C@@H]1O | 2.301 |

Target: T1, Mu-type opioid receptor (Rattus norvegicus, UniProt P33535)
Assay: Inhibition of DAMGO (Tyr-[D-Ala]-Gly-[NMe-Phe]-Gly-ol) binding to rat brain opioid receptor

T1 sequence (P33535 whole entry): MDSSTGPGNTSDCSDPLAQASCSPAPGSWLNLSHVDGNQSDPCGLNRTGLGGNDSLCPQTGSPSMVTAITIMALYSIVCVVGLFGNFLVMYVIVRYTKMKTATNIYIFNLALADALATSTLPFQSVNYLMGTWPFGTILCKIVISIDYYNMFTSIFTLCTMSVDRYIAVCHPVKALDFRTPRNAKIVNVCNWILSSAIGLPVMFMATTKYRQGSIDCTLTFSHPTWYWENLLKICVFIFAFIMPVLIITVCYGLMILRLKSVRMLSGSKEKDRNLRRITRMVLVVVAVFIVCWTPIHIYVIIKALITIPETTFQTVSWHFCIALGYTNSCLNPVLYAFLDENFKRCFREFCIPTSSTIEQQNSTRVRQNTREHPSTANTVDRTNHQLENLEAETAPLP

| Structure (SMILES) | Ki [nM] |
| --- | --- |
| C[C@H](c1ccccc1)[C@H](NC(=O)[C@H](Cc1ccccc1)NC(=O)[C@@H]1CCCN1C(=O)[C@@H](N)Cc1ccc(O)cc1)C(N)=O | 26.3 |
| C[C@@H](c1ccccc1)[C@@H](NC(=O)[C@H](Cc1ccccc1)NC(=O)[C@@H]1CCCN1C(=O)[C@@H](N)Cc1ccc(O)cc1)C(N)=O | 107 |
| C[C@@H](c1ccccc1)[C@H](NC(=O)[C@H](Cc1ccccc1)NC(=O)[C@@H]1CCCN1C(=O)[C@@H](N)Cc1ccc(O)cc1)C(N)=O | 0.8 |

Target: T1, Mu-type opioid receptor
Assay: Inhibition of DAMGO (Tyr-[D-Ala]-Gly-[NMe-Phe]-Gly-ol) binding torat brain mu opioid receptor

| Structure (SMILES) | Ki [nM] |
| --- | --- |
| C[C@H](c1ccccc1)[C@@H](NC(=O)[C@H](Cc1ccccc1)NC(=O)[C@@H]1CCCN1C(=O)[C@@H](N)Cc1ccc(O)cc1)C(N)=O | 45.3 |

Target: T1, Mu-type opioid receptor
Assay: Inhibition of DAMGO (Tyr-[D-Ala]-Gly-[NMe-Phe]-Gly-ol) binding to rat brain mu opioid receptor

| Structure (SMILES) | Ki [nM] |
| --- | --- |
| Cc1cc(O)cc(C)c1C[C@H](N)C(=O)N1CCC[C@H]1C(=O)N[C@@H](Cc1ccccc1)C(=O)N[C@H](C(N)=O)[C@@H](C)c1ccccc1 | 0.35 |
| Cc1cc(O)cc(C)c1C[C@H](N)C(=O)N1CCC[C@H]1C(=O)N[C@@H](Cc1ccccc1)C(=O)N[C@@H](Cc1ccccc1)C(N)=O | 0.21 |
| NC(=O)[C@H](Cc1c[nH]c2ccccc12)NC(=O)[C@H](Cc1ccccc1)NC(=O)[C@@H]1CCCN1C(=O)[C@@H](N)Cc1ccc(O)cc1 (H-YPFW-NH2) | 4.21 |
| Cc1cc(O)cc(C)c1C[C@H](N)C(=O)N1CCC[C@H]1C(=O)N[C@@H](Cc1ccccc1)C(=O)N[C@@H](Cc1c[nH]c2ccccc12)C(N)=O (H-[Dmt]PFW-NH2) | 0.014 |
| C[C@@H](NC(=O)[C@@H](N)Cc1ccc(O)cc1)C(=O)N[C@@H](Cc1ccccc1)C(=O)NC(Cc1ccccc1)C(N)=O (single isomer, unassigned) | 0.31 |
| NC(=O)C(Cc1ccccc1)NC(=O)[C@H](Cc1ccccc1)NC(=O)[C@H]1Cc2ccccc2CN1C(=O)[C@@H](N)Cc1ccc(O)cc1 (single isomer, unassigned) | 167 |
| NC(=O)[C@@H]1CCCN1C(=O)[C@H](Cc1ccccc1)NC(=O)[C@@H]1CCCN1C(=O)[C@@H](N)Cc1ccc(O)cc1 [MORPHICEPTIN] (H-YPFP-NH2) | 80 |
